Measured values taken from patent US12433876B2, “Septin inhibitors for treatment of cancers” (UNIVERSITY OF ROCHESTER, priority 2019, dated 2025).

Tests used:
EGFR = experiment: Western blot of EGFR expression; format: cell-based; conditions: UR214-7 33 μM, UR214-9 33 μM; 24 hours
Experimental: Cell lines, Culture, and Reagents. Cells were maintained in either DMEM (SKOV-3, KLE, OVCAR-3, OVCAR8-C5 and IGROV-1) or RPMI-1640 (ECC-1 and HCH-1), supplemented with 10% fetal calf serum (or 20% for OVCAR-3), penicillin (100 units/mL), and streptomycin (100 μg/mL) at 37° C. with 5% CO2 in a humidified incubator. Antibodies were purchased from Abcam (septin-2; ab179436) and Cell Signaling Technology; ERK (9102), p-ERK (4370), -actin (3700), u-Tubulin (2144), EGFR (4267) and HER2 (4290). FCF was purchased from Abcam. All other chemicals were from Sigma Aldrich. Synthesis of Derivaties. […] The reaction was monitored using thin-layer chromatography plates with DCM-MeOH or pure ethyl acetate as eluent. Spots were monitored in a UV chamber. […] Quantitative Real-Time PCR. […] Quantitative real-time PCR was conducted using QuantStudio 12 K Flex Real-Time PCR System (ABI) and the Taqman Gene Expression Assay (ABI) consisting of the FAM-labeled probes as follows: SEPT2 (Hs01565417_ml); WFDC2 (Hs00899484_ml); TBP (Hs00427620_ml) or B2M (Hs00187842_ml), which was used as reference for normalization. […] Cell viability, proliferation, and cellular apoptosis were measured using the MTS (Promega), BrdU cell proliferation (Cell Signaling Technology), and Caspase-Glo 3/7 apoptosis detection (Promega) assays, following the respective manufacturer's recommendations with suitable modification. […]

septin-9 = experiment: Immunoblot of septin-9 expression; format: cell-based; conditions: 48 hours
septin-7 = experiment: Immunoblot of septin-7 expression; format: cell-based; conditions: PANC-1, 1.0 and 10.0 μM, 48 hours
PANC-1 cells = experiment: Cell cycle analysis (PI, flow cytometry), PANC-1; format: cell-based, human
Experimental: For cell cycle analysis, BXPC-3 and PANC-1 and JIMT-1 cells (100,000/well) were seeded overnight in a 6 well dishes and allowed to adhere overnight. Media was replaced with fresh complete medium supplemented with DMSO or UR214-9 (100 nM and 3 μM) and cells were incubated for 72 hours. The media containing the drugs was removed and cells were washed twice with PBS and trypsinized gently. The cells were collected in 15 mL tubes, complete DMEM media was added to block trypsin and cells were centrifuged. The supernatants were removed and cells were gently treated with 70% cold-EtOH for 30 minutes. The fixed cells were centrifuged and the pellets obtained were collected in flow cytometry tubes and stained with preformulated PI/RNase solution (Cell Signaling Technology, catalog number: 4087s) for 30 minutes. The PI content was analyzed using a flow cytometer. Data was processed using Flowjo software.

JIMT1 xenograft tumors = experiment: JIMT1 xenograft tumor growth; format: in vivo, NSG mice; conditions: 25 mg/kg IP, 28 days
pSTAT-3 = experiment: Immunoblot of phosphorylated STAT-3; format: cell-based

O=C(Nc1cc(Cl)nc(Cl)c1)Nc1cccc(SC(F)(F)F)c1F [UR214-9]
EGFR expression (EGFR): did not have an effect
septin-9 protein expression levels (western blot) (septin-9; MDA-MB-231, JIMT-1 and MCF-7 cells, 10 and 30 μM): does not alter the protein expression levels
septin-9 expression (immunoblot) (septin-9; PANC-1, 1.0 and 10.0 μM): completely inhibited
septin-7 expression (immunoblot) (septin-7): unaffected
cell cycle distribution (PANC-1 cells; PANC-1, 100 nM): minor S-phase arrest
cell cycle distribution (PANC-1 cells; PANC-1, 3 μM): complete arrest in sub-G1/G0 phase
xenograft tumor growth (tumor volume and weight) (JIMT1 xenograft tumors): significant growth control
phosphorylation of STAT-3 (pSTAT-3; MDA-MB-231, JIMT-1 and MCF-7 cells, 10 and 30 μM, 24 hours): reduced phosphorylation of STAT-3
phosphorylated STAT-3 (pSTAT-3; PANC-1): reduced phosphorylated STAT-3
